# What was measured:
# STING [1] = assay: STING inhibitor pretreatment of THP-1 cells before HSV-1 stimulation, qPCR; type: cell-based, human; settings: THP1 cells, indicated doses
# STING [2] = assay: STING inhibitor pretreatment of T cells before DNA electroporation; type: cell-based, human
structure (smiles),measurement,setting,value
CCc1ccc(NC(=O)Nc2c[nH]c3ccccc23)cc1 [H151],ISG56 and IFN-β response to HSV-1,STING [1],positive dose-response
same,IFNβ and ISG56 expression in DNA transfected T cells under inhibitor,"STING [2]; 1 μM pretreatment, qPCR",upregulated
same,rescue of DNA-induced cell death,"STING [2]; 1 μM, 16 h pretreatment, cell number 72 h post-EP",failed to rescue DNA-induced cell death

# Reference: patent US20240336938A1, “COMPOSITIONS AND METHODS FOR EFFECTIVE DELIVERY OF POLYNUCLEOTIDES TO CELLS” (WUHAN UNIVERSITY, priority 2021, published 2024)
